Data on 13 compounds can be found in patent US11447466B2, “Substituted indole compounds useful as inhibitors of TLR7/8/9” (BRISTOL-MYERS SQUIBB COMPANY, priority 2017, dated 2022).

What all share (format): cell-based
One assay deals with T1, human TLR7 (Homo sapiens, UniProt Q9NYK1).
T1 construct: host or cells: HEK-Blue cells
T1 sequence (Q9NYK1 27-1049): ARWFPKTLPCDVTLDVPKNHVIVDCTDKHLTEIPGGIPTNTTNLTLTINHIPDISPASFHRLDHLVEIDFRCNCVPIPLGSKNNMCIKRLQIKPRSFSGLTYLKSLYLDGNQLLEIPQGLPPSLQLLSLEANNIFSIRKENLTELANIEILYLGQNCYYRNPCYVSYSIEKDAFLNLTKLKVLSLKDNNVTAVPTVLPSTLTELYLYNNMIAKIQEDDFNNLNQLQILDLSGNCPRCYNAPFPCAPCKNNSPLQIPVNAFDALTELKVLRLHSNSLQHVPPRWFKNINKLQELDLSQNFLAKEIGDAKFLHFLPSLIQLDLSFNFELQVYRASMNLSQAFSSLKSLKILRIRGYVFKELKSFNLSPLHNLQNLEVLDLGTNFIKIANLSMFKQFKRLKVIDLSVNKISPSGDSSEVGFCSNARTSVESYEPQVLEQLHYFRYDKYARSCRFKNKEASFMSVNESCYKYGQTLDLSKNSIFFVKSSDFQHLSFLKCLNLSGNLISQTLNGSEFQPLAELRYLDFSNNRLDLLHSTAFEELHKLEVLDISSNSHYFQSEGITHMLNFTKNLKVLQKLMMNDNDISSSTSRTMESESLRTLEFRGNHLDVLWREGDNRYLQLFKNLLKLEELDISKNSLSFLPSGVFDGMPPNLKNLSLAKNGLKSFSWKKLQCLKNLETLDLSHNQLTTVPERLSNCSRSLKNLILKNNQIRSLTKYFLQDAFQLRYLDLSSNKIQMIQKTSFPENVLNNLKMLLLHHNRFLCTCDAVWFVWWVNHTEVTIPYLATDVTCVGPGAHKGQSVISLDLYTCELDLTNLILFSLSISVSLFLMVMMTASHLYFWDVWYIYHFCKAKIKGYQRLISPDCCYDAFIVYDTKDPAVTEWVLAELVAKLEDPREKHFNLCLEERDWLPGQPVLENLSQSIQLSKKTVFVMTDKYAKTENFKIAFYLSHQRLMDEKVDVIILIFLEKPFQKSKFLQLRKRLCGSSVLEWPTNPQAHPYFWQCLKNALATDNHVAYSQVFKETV
Briefly: TLR7 inhibition reporter assay (HEK-Blue SEAP reporter, gardiquimod stimulation). The following applies: HEK-Blue cells overexpressing human TLR7, SEAP reporter, gardiquimod 7.5 μM, 22 hour incubation. Summed up:
(§1)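 Dose–response from 0.05 nM to 50 μM was run in HEK-Blue human TLR7, TLR8 and TLR9 reporter cells. After 30 min at room temperature with compound, ligand was added (TLR7 gardiquimod 7.5 μM; TLR8 R848 15.9 μM; TLR9 ODN2006 5 nM) and SEAP measured next day, at 22 h.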
For orientation: A reporter such as luciferase makes a cellular process visible.

The next assay deals with T2, human TLR8 (Homo sapiens, UniProt Q9NR97).
T2 construct: host or cells: HEK-Blue cells
T2 sequence (Q9NR97 27-1041): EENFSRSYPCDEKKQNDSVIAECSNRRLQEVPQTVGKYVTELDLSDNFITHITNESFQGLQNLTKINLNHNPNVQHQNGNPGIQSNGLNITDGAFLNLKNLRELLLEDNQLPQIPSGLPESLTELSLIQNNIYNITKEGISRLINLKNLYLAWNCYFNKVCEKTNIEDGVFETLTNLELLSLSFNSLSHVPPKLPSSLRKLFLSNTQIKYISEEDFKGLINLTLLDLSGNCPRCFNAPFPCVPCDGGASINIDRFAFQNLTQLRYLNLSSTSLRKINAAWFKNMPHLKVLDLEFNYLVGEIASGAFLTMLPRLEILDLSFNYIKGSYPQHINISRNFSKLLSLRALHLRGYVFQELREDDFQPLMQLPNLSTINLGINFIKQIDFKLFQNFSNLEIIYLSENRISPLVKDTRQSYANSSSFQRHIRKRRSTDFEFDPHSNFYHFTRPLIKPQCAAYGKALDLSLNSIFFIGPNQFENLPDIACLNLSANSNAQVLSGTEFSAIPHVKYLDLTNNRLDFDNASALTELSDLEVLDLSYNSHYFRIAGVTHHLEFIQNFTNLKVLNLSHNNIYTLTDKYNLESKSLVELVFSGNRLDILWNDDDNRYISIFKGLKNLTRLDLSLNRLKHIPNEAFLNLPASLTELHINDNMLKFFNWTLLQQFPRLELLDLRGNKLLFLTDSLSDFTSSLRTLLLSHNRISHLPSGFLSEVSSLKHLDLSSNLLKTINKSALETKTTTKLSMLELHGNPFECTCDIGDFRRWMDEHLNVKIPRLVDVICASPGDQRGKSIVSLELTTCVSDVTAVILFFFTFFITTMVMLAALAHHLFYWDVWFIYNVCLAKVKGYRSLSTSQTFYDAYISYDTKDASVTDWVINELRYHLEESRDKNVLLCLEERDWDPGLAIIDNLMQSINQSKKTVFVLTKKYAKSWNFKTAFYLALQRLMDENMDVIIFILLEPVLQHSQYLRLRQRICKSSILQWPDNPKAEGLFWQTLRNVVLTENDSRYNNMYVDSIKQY
The experiment in a line: TLR8 inhibition reporter assay (HEK-Blue SEAP reporter, R848 stimulation). To be noted: HEK-Blue cells overexpressing human TLR8, SEAP reporter, R848 15.9 μM, 22 hour incubation. In short, it runs like this:
as §1

The target of another assay is T3, human TLR9 (Homo sapiens, UniProt Q9NR96).
T3 construct: host or cells: HEK-Blue cells
T3 sequence (Q9NR96 26-1032): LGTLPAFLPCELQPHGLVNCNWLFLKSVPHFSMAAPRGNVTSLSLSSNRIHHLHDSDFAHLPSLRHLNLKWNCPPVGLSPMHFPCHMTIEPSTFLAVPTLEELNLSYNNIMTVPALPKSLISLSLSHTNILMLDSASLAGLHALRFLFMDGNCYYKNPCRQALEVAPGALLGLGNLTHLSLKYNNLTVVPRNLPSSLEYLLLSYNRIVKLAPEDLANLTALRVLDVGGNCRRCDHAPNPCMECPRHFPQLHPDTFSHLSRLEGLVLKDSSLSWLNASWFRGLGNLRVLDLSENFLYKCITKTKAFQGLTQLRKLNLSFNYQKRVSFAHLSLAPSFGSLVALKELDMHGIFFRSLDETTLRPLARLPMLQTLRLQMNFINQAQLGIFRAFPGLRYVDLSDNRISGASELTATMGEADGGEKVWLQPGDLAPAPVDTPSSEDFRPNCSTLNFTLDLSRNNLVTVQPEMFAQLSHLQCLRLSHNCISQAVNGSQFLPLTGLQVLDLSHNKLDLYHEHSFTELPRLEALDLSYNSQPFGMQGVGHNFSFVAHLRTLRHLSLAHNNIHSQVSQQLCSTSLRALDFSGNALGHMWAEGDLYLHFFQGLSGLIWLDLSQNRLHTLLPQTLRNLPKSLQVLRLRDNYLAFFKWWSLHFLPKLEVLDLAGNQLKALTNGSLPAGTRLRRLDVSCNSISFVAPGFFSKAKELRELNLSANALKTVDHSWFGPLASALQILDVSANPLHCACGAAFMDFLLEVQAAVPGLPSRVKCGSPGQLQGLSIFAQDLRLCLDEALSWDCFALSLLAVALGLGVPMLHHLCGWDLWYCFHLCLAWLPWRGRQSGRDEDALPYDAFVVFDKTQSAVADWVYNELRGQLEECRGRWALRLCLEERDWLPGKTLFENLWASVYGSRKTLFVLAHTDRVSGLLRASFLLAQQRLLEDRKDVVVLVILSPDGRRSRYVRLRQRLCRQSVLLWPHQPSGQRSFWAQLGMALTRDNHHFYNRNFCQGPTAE
The experiment in a line: TLR9 inhibition reporter assay (HEK-Blue SEAP reporter, ODN2006 stimulation). To be noted: HEK-Blue cells overexpressing human TLR9, SEAP reporter, ODN2006 5 nM, 22 hour incubation. Summed up: as §1

As usually defined, the IC50 is the point on the concentration scale where inhibition reaches its midpoint. Lower therefore signals inhibition by little substance. Consider `Cc1c(-c2[nH]c3ccc(C4CCN(CC(=O)N(C)C)CC4)cc3c2C(C)C)cn(C)c(=O)c1C` [Example 134, 2-(4-(3-isopropyl-2-(1,4,5-trimethyl-6-oxo-1,6-dihydropyridin-3-yl)-1H-indol-5-yl)piperidin-1-yl)-N,N-dimethylacetamide], for which the values for the IC50 on human TLR7, at human TLR8 and against human TLR9 were 11.9 nM, 8.7 nM and 3460 nM, respectively.

Take `Cc1cc(-c2[nH]c3ccc(C4CCN(C5COC5)CC4)cc3c2C(C)C)nn(C)c1=O` [Example 189, 6-(3-isopropyl-5-(1-(oxetan-3-yl)piperidin-4-yl)-1H-indol-2-yl)-2,4-dimethylpyridazin-3(2H)-one]: the IC50 was found to be 25.5 nM against human TLR7, 25 nM at human TLR8 and 47800 nM on human TLR9.

Turning to `Cc1cc(-c2[nH]c3ccc(C4CCN(CC(=O)NCC(C)(C)O)CC4)cc3c2C(C)C)cn(C)c1=O` [Example 124, 2-(4-(2-(1,5-dimethyl-6-oxo-1,6-dihydropyridin-3-yl)-3-isopropyl-1H-indol-5-yl)piperidin-1-yl)-N-(2-hydroxy-2-methylpropyl)acetamide], the IC50 on human TLR7 is 9.7 nM; at human TLR8, 11.3 nM; against human TLR9 it was at least 50000 nM.

Take `Cc1c(-c2[nH]c3ccc(C4CCNCC4)cc3c2C(C)C)cc(C#N)c(=O)n1C` [Example 23, 5-(3-isopropyl-5-(piperidin-4-yl)-1H-indol-2-yl)-1,6-dimethyl-2-oxo-1,2-dihydropyridine-3-carbonitrile]: the IC50 was determined as 62.8 nM against human TLR7, 15.1 nM on human TLR8 and 6270 nM at human TLR9.

For the compound `CC(C)c1c(-c2ccc(=O)n(C)c2)[nH]c2ccc(C3CCNCC3)cc12` [Example 1, 5-(3-isopropyl-5-(piperidin-4-yl)-1H-indol-2-yl)-1-methylpyridin-2(1H)-one], the IC50 on human TLR7 was 27.5 nM; against human TLR8, 15.4 nM; on human TLR9, 621 nM.

As for `Cc1c(-c2[nH]c3ccc(C4CCN(C(C)C)CC4)cc3c2C(C)C)cn(C)c(=O)c1Cl` [Example 238, 3-chloro-5-(3-isopropyl-5-(1-isopropylpiperidin-4-yl)-1H-indol-2-yl)-1,4-dimethylpyridin-2(1H)-one], the figures for the half-maximal inhibitory concentration (IC50) on human TLR7, against human TLR8 and against human TLR9 were 7.2 nM, 11.8 nM and 8330 nM, respectively.

For the compound `CC(C)CN1CCC(c2ccc3[nH]c(-c4cc(-c5ccccc5)c(=O)n(C)c4)c(C(C)C)c3c2)CC1` [Example 89, 5-(5-(1-isobutylpiperidin-4-yl)-3-isopropyl-1H-indol-2-yl)-1-methyl-3-phenylpyridin-2(1H)-one], the IC50 stood at 16.9 nM at human TLR7, 4.5 nM on human TLR8 and 1960 nM at human TLR9.

Turning to `Cc1cc(-c2[nH]c3ccc(C4CCN(C5CCOC5)CC4)cc3c2C(C)C)nn(C)c1=O` (stereo not drawn) [Example 193, 6-(3-isopropyl-5-(1-(tetrahydrofuran-3-yl)piperidin-4-yl)-1H-indol-2-yl)-2,4-dimethylpyridazin-3(2H)-one], the IC50 on human TLR7 was 12.6 nM; against human TLR8, 11.7 nM; against human TLR9, 8920 nM.

As for `Cc1cc(-c2[nH]c3ccc(C4CCN(C5COC5)CC4)cc3c2C(C)C)c(C)n(C)c1=O` [Example 211, 5-(3-isopropyl-5-(1-(oxetan-3-yl)piperidin-4-yl)-1H-indol-2-yl)-1,3,6-trimethylpyridin-2(1H)-one], the values for the IC50 against human TLR7, against human TLR8 and against human TLR9 were 34.6 nM, 17.1 nM and at least 50000 nM, respectively.

As for `Cc1cc(-c2[nH]c3ccc(C4CCN(C5CCC(C(C)(C)O)CC5)CC4)cc3c2C(C)C)cn(C)c1=O` (stereo not drawn) [Example 268, 5-(5-(1-(4-(2-hydroxypropan-2-yl)cyclohexyl)piperidin-4-yl)-3-isopropyl-1H-indol-2-yl)-1,3-dimethylpyridin-2(1H)-one], the IC50 against human TLR7 turned out to be 2.4 nM; against human TLR8, 6.6 nM; against human TLR9 it was 2630 nM.

As to `CCNC(=O)CN1CCC(c2ccc3[nH]c(-c4cn(C)c(=O)c(Cl)c4C)c(C(C)C)c3c2)CC1` [Example 155, 2-(4-(2-(5-chloro-1,4-dimethyl-6-oxo-1,6-dihydropyridin-3-yl)-3-isopropyl-1H-indol-5-yl)piperidin-1-yl)-N-ethylacetamide], the figures for the IC50 against human TLR7, on human TLR8 and on human TLR9 were 5.3 nM, 24.2 nM and 21100 nM, respectively.

As for `CCCn1cc(CN2CCC(c3ccc4[nH]c(-c5cc(C)c(=O)n(C)c5)c(C(C)C)c4c3)CC2)cn1` [Example 228, 5-(3-isopropyl-5-(1-((1-propyl-1H-pyrazol-4-yl)methyl)piperidin-4-yl)-1H-indol-2-yl)-1,3-dimethylpyridin-2(1H)-one], the figures for the IC50 on human TLR7, against human TLR8 and on human TLR9 were 3.6 nM, 4.3 nM and 4270 nM, respectively.

On to `CCCN1CCC(c2ccc3[nH]c(-c4cc(-c5cncc(C)c5)c(=O)n(C)c4)c(C(C)C)c3c2)CC1` [Example 332, 5-(3-isopropyl-5-(1-propylpiperidin-4-yl)-1H-indol-2-yl)-1,5′-dimethyl-[3,3′-bipyridin]-2(1H)-one], for which the IC50 at human TLR7 turned out to be 4.9 nM; at human TLR8, 1.1 nM; on human TLR9 it was 789 nM.
